# Paper PMC11167047 (Cell Death Discovery, 2024)
# Tests used:
# Experiment in all cases: kinome screen (33PanQinase)
# Format in all cases: biochemical
# BRAF = target: T1, BRAF (Homo sapiens, UniProt P15056)
# T1 construct: purchased Reaction Biology Europe GmbH (formerly ProQinase)
# Protocol: (§1) The Kinome Screening was performed by Reaction Biology Europe GmbH (http://reactionbiology.com; Freiburg i. Br., Germany).
# ABL1 = target: T2, ABL1 (Homo sapiens, UniProt P00519)
# T2 construct: purchased Reaction Biology Europe GmbH (formerly ProQinase)
# T2 sequence (P00519 whole entry): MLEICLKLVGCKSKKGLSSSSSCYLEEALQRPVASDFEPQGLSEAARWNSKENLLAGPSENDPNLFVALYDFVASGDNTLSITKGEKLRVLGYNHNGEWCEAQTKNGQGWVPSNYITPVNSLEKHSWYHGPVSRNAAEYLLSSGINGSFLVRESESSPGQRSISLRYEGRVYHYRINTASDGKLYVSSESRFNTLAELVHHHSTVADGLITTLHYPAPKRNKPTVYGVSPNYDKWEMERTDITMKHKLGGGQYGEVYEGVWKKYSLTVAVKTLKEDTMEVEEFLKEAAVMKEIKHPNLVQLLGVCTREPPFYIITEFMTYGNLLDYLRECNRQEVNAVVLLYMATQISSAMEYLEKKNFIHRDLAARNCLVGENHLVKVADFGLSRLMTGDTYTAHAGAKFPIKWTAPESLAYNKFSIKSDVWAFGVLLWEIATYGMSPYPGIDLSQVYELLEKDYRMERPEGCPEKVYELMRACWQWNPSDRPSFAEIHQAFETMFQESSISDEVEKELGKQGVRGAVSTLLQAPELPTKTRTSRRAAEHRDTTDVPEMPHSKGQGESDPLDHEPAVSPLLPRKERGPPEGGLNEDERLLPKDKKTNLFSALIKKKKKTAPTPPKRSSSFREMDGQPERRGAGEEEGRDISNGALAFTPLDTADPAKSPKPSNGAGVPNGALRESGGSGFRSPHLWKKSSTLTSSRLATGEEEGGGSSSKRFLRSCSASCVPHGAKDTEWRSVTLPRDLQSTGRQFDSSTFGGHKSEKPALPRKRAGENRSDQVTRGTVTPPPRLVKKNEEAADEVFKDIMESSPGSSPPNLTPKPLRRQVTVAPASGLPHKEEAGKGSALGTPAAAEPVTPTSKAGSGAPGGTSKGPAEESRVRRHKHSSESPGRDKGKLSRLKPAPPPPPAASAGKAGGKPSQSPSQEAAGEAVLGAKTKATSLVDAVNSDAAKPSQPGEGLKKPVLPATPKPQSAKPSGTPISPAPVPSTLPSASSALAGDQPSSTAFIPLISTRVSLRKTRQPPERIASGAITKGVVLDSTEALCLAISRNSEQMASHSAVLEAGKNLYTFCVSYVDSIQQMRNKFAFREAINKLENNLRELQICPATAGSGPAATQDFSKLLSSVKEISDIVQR
# Protocol: as §1
# BLK = target: T3, BLK (Homo sapiens, UniProt P51451)
# T3 construct: purchased Reaction Biology Europe GmbH (formerly ProQinase)
# T3 sequence (P51451 whole entry): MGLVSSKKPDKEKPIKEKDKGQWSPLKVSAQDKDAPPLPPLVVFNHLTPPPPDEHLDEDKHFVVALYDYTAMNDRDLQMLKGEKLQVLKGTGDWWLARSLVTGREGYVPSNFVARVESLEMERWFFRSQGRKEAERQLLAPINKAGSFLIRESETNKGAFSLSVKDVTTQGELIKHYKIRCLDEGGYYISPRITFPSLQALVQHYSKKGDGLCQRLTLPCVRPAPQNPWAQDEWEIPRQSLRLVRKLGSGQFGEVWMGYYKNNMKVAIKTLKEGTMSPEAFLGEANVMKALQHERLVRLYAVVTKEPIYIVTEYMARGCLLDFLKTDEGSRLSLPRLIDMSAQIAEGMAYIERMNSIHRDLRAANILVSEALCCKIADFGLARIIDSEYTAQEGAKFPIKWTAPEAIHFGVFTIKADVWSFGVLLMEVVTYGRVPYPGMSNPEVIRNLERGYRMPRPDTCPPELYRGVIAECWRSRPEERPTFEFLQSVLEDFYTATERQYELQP
# Protocol: as §1
# PDK1 = target: T4, PDK1 (Homo sapiens, UniProt O15530)
# T4 construct: purchased Reaction Biology Europe GmbH (formerly ProQinase)
# T4 sequence (O15530 1-556): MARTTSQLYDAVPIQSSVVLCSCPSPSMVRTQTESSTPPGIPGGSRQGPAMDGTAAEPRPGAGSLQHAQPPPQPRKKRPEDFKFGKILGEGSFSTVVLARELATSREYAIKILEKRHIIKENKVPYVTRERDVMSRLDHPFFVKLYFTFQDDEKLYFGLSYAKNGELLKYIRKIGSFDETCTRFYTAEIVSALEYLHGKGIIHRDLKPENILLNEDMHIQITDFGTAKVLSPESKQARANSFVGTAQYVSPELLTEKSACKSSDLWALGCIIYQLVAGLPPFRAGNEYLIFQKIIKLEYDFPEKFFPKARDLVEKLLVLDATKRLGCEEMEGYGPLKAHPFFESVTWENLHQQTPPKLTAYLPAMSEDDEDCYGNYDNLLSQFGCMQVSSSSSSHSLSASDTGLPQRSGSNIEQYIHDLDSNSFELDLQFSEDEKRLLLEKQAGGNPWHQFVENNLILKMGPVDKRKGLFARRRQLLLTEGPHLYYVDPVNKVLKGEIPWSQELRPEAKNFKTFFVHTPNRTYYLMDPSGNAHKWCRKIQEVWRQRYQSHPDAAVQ
# Protocol: as §1
# PKCε = target: T5, PKCε (Homo sapiens, UniProt Q02156)
# T5 construct: purchased Reaction Biology Europe GmbH (formerly ProQinase)
# T5 sequence (Q02156 1-737): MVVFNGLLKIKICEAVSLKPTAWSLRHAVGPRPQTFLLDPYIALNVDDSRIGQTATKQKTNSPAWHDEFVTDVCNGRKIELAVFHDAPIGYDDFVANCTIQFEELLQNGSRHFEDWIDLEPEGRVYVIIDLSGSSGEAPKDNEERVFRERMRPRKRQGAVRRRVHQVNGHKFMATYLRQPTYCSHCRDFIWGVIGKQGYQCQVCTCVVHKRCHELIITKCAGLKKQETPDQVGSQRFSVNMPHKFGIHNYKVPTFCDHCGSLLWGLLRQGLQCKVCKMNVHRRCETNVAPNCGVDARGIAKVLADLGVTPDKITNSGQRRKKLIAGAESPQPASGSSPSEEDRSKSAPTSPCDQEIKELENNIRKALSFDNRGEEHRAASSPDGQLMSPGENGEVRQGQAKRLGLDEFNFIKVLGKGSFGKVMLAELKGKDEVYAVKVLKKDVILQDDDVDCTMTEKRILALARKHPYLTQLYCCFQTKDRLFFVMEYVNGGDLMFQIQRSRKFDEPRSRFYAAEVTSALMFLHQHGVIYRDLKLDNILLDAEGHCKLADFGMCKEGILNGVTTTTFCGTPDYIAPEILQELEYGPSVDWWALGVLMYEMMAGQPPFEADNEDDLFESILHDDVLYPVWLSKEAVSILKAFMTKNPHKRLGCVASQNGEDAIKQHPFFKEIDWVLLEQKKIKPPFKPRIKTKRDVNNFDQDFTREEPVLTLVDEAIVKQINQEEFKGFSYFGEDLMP
# Protocol: as §1
# TBK1 = target: T6, TBK1 (Homo sapiens, UniProt Q9UHD2)
# T6 construct: purchased Reaction Biology Europe GmbH (formerly ProQinase)
# T6 sequence (Q9UHD2 1-729): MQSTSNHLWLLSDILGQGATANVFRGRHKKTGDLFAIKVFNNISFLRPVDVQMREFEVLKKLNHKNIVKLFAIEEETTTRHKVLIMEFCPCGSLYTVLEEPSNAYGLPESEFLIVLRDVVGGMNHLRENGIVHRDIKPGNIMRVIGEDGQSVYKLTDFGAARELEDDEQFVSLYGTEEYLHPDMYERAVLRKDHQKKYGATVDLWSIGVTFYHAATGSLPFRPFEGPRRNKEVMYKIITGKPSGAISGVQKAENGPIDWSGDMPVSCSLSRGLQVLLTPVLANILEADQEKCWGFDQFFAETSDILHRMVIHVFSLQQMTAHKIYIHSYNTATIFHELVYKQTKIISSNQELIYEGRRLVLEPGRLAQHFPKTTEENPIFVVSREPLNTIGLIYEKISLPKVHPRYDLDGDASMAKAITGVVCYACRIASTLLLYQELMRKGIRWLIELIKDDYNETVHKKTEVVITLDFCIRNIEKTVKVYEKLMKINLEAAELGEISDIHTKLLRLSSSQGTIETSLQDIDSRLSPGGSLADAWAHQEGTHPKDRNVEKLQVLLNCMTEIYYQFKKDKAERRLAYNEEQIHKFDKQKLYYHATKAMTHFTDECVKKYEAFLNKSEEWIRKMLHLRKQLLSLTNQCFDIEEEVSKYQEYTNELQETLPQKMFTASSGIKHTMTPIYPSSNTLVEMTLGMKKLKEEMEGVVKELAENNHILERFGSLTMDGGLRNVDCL
# Protocol: as §1
# TLK2 = target: T7, TLK2 (Homo sapiens, UniProt Q86UE8)
# T7 construct: purchased Reaction Biology Europe GmbH (formerly ProQinase)
# T7 sequence (Q86UE8 whole entry): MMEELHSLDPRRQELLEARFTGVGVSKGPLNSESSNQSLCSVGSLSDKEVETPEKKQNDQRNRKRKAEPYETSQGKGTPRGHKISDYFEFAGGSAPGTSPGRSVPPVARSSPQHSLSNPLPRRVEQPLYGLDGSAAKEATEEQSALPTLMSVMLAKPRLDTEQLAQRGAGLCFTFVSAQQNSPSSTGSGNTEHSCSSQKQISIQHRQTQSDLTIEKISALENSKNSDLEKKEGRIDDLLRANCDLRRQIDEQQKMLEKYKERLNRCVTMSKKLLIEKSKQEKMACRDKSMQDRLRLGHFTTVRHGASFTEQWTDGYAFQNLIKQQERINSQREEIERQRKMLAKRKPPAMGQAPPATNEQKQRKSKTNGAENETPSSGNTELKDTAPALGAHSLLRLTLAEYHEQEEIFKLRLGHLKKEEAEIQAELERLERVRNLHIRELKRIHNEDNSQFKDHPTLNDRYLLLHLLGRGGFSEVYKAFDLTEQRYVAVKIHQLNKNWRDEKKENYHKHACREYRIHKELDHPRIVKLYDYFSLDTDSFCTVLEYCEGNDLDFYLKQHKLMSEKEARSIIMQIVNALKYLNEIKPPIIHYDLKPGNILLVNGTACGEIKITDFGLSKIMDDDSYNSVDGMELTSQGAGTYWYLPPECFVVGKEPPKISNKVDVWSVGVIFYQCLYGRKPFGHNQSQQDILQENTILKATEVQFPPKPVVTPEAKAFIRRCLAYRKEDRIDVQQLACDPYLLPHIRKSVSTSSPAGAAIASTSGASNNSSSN
# Protocol: as §1
# PIM1 = target: T8, PIM1 (Homo sapiens, UniProt P11309)
# T8 construct: purchased Reaction Biology Europe GmbH (formerly ProQinase)
# T8 sequence (P11309 whole entry): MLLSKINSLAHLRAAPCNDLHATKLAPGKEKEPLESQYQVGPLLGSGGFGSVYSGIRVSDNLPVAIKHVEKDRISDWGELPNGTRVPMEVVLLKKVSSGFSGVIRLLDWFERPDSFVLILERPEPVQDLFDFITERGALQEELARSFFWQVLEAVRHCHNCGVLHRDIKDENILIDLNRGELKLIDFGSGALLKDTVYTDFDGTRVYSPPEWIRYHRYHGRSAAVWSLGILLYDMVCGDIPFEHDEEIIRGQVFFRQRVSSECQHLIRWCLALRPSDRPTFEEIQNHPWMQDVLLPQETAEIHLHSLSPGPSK
# Protocol: as §1
# T1 sequence (P15056 whole entry): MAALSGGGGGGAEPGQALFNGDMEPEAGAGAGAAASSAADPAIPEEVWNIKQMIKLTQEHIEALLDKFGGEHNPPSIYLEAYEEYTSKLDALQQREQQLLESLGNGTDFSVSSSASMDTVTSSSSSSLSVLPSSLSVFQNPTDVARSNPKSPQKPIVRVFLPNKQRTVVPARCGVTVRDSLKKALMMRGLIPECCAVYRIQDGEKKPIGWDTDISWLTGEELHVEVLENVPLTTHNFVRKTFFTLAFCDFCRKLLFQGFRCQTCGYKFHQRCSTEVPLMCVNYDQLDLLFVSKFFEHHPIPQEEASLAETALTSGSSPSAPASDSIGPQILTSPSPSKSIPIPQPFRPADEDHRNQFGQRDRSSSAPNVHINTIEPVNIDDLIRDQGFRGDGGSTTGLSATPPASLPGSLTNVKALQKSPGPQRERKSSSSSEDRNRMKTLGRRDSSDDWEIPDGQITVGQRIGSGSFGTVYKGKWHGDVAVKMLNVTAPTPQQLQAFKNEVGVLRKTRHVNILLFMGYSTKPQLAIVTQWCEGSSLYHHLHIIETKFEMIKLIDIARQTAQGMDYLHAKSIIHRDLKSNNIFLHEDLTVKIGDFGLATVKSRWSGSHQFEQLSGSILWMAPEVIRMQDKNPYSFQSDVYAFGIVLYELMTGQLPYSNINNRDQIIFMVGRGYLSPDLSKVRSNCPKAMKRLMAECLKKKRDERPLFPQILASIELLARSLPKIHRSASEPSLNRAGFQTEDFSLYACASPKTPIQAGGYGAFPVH
smiles,measurement,setting,value
COc1ccnc2[nH]cc(-c3cc(N)nc(N)c3)c12 [meriolin 16],residual kinase activity,BRAF; 0.03 µM,94 % of control
same,residual kinase activity,ABL1; 0.03 µM,103 % of control
same,residual kinase activity,ABL1; 0.3 µM,99 % of control
same,residual kinase activity,BLK; 0.03 µM,126 % of control
same,residual kinase activity,BLK; 0.3 µM,95 % of control
same,residual kinase activity,PDK1; 0.03 µM,98 % of control
same,residual kinase activity,PDK1; 0.3 µM,83 % of control
same,residual kinase activity,PKCε; 0.03 µM,25 % of control
same,residual kinase activity,PKCε; 0.3 µM,4 % of control
same,residual kinase activity,TBK1; 0.03 µM,114 % of control
same,residual kinase activity,TBK1; 0.3 µM,99 % of control
same,residual kinase activity,TLK2; 0.03 µM,111 % of control
same,residual kinase activity,TLK2; 0.3 µM,91 % of control
same,residual kinase activity,PIM1; 0.03 µM,77 % of control
same,residual kinase activity,PIM1; 0.3 µM,40 % of control
c1ccc(CNc2cc(-c3c[nH]c4ncccc34)ccn2)cc1 [meriolin 36],residual kinase activity,BRAF; 0.3 µM,66 % of control
same,residual kinase activity,BRAF; 3 µM,50 % of control
same,residual kinase activity,ABL1; 0.3 µM,80 % of control
same,residual kinase activity,ABL1; 3 µM,26 % of control
same,residual kinase activity,BLK; 0.3 µM,88 % of control
same,residual kinase activity,BLK; 3 µM,13 % of control
same,residual kinase activity,PDK1; 0.3 µM,160 % of control
same,residual kinase activity,PDK1; 3 µM,39 % of control
same,residual kinase activity,PKCε; 0.3 µM,5 % of control
same,residual kinase activity,PKCε; 3 µM,1 % of control
same,residual kinase activity,TBK1; 0.3 µM,48 % of control
same,residual kinase activity,TBK1; 3 µM,10 % of control
same,residual kinase activity,TLK2; 0.3 µM,149 % of control
same,residual kinase activity,TLK2; 3 µM,88 % of control
same,residual kinase activity,PIM1; 0.3 µM,55 % of control
same,residual kinase activity,PIM1; 3 µM,14 % of control
